Measurements: patent US6407064B2, “Aminoalcohol derivative and medicament comprising the same” (Seikagaku Corporation, priority 1999, dated 2002)

Tests used:
[1] = test system: cultured neurocytes of rat fetal cerebral cortex; test: Activity of accelerating synapse formation (intracellular calcium ion level, fura-2); type: cell-based; conditions: relative value, L-PDMP regarded as 100; compound 20 μM; assay on 10th day of culture
Method: The activity of accelerating synapse formation was determined by measuring change of an intracellular calcium ion level resulted from the synchronized spontaneous ignition of neurocytes which is considered to show synapse activities by means of an intracellular calcium ion multipoint observation system using a calcium ion fluorescence indicator, fura-2.
Concretely, rat fetuses at the 18th day of pregnancy were taken out from Wistar rats (available from Japan SLC), and cerebral cortices of the fetuses were taken out and cut into small pieces. After having been treated with papain (manufactured by Worthington Biochemical) at 37° C. for 30 minutes, the pieces were suspended into a Dulbecco modified Eagle's medium containing 5% bovine neonatal serum and 5% equine serum and the cortices were dissociated into single cells with Cell Striner (70 μm, Falcon). Then, the cells were inoculated into a flexiperm plate coated with 0.5% polyethyleneimine (1.0×10^6 cells/500 μl/well), and was cultured in 7% CO2 incubator at 37° C. The medium was exchanged on 2nd, 5th, and 8th days after the culture had been started. The activity of the compound of the present invention was measured using the primary culture. The compound was added at the time when the medium was exchanged and the concentration of the compound was maintained to be 20 μM. Assay was carried out on 10th day after the culture had been started.
(2) Measurement of Activity of Accelerating Synapse Formation
Concretely, after the medium of each well where cells were cultured was substituted with basic salt solution (BSS), 3 μl of a DMSO solution (1 mg/ml) of a calcium ion fluorescence indicator fura-2 was added, and the whole was kept at 37° C. for 1 hour.

[2] = test system: enzyme for ganglioside GM3 synthesis, mouse B16 melanoma cell; test: Activity of enzyme for ganglioside GM3 synthesis (14C-Gal incorporated in total lipid fraction); type: cell-based; conditions: relative value, control regarded as 100; test compound 24 μM, 24 hours; 14C-Gal incorporation
Method: The gangliosides produced by mouse B16 melanoma cell are almost composed of ganglioside GM3. Therefore, the activity of the enzyme for ganglioside GM3 synthesis can be determined conveniently by measuring the amount of ^14C-Gal incorporated in a total lipid-extracted fraction through a liquid layer partition method.
(§1) A liquid where the cells of mouse B16 melanoma were suspended was prepared with Dulbecco modified Eagle's medium containing 10% bovine fetal serum, inoculated into a 12-well plate in an amount of 2.0×10^5 cells/ml/well, and cultured in 5% CO2 incubator at 37° C. The treatment with a test compound (24 μM) and the addition of ^14C-Gal (22.2 kBq/11.7 nmol/6 μl/well) were started through the exchange of total amount of the medium 24 hours after the culture was started. Twenty-four hours after the treatment with the test compound was started, the culture mixture was treated with PBS containing 0.02% EDTA and PBS containing 0.25% trypsin successively to recover the cells.
Then, a mixed solvent of chloroform:methanol=2:1 (3 ml) was added to the cell pellet and, after the subjection to an ultrasonication for 30 minutes, the supernatant was recovered. Furthermore, a mixed solvent of chloroform:methanol=1:1 (3 ml) was added to the residual pellet after the recovery of the supernatant, and a similar operation was carried out. The resulting supernatant was combined with the first supernatant and the whole was evaporated to dryness under a nitrogen stream. A desalinated water (1.0 ml) was added to the total lipid-extracted fraction. After having been subjected to an ultrasonication for 1 minute, the mixture was transferred into a dialysis tube and dialyzed against water for 2 days. The sample after the dialysis was transferred into a vial for liquid scintillation counter and, after the addition of scintillator, the activity of incorporating ^14C-Gal was measured on scintillation counter.
The values of activity of the compounds of the present invention are shown as relative values obtained by calculation on the basis that the value of a control (a group where no test compound was added) is regarded as 100 in Table 3 below.

[3] = test system: ganglioside GM3, mouse B16 melanoma cells; test: Synthesized amount of ganglioside GM3 (HPTLC densitometry); type: cell-based; conditions: relative value, control regarded as 100, test compound 25 μM, 24 hours
Method: as §1, with “culture flask (175 cm^2)” for “12-well plate”, “0.8×10^7 cells/20 ml,” for “2.0×10^5 cells/ml/well,”, “(25” for “(24”, “was” for “and the addition of ^14C-Gal (22.2 kBq/11.7 nmol/6 μl/well) were”, “three fourths” for “total amount”
Then, a mixed solvent of chloroform:methanol=2:1 (4 ml) was added to the cell pellet and, after the subjection to an ultrasonication for 30 minutes, the cell pellet solution was allowed to stand at room temperature for a night and the supernatant was recovered. Furthermore, a mixed solvent of chloroform:methanol=1:1 (4 ml) was added to the residual pellet after the recovery of the supernatant, and a similar operation was carried out. The resulting supernatant was combined with the first supernatant and the whole was evaporated to dryness under a nitrogen stream. To the total lipid fraction was added a 0.1 N methanolic sodium hydroxide solution (2.0 ml) and the mixture was allowed to stand at 40° C. for 2 hours. Thereafter, 1 N hydrochloric acid (0.2 ml) was added thereto and the mixture was allowed to stand for 1.5 hours.
Then, the mixture was washed with n-hexane (2 ml×2) and, after the lower layer thus washed was evaporated to dryness under a nitrogen stream, the residue was desalinated by gel filtration chromatography (Sephadex LH-20 (manufactured by Amersham Pharmacia Biotech), diameter of 10 mm, height of 120 mm) using chloroform:methanol=2:1 as the eluting solvent. […] After orcinol-sulfuric acid reagent had been sprayed on the plate, it was heated at 110° C. for 5 minutes and colored spot of ganglioside GM3 was quantitatively determined by means of densitometer (a measuring wavelength of 505 nm). […]

neurite = conditions: literature; cited from earlier work
neurocytes = conditions: J. Neurochem. 67: 1821-1830, 1996; cited from earlier work
synapse formation = conditions: WO 95/05177; cited from earlier work
[4] = test system: MAPkinase (mitogen-activated protein kinase); conditions: Biochem. Biophys. Res. Commun. 237: 595-600 (1997); cited from earlier work
[5] = test system: enzyme for GQ1b synthesis; conditions: Biochem. Biophys. Res. Commun. 237: 595-600 (1997); cited from earlier work

SMILES: CCCCCCCCCC(=O)N[C@@H](CN1CCOCC1)[C@@H](O)c1ccccc1 [L-PDMP, (1S,2S)-1-phenyl-2-decanoylamino-3-morpholino-1-propanol, reference compound]
- Activity of synapse formation [1]: 100.0
- Activity of accelerating glycolipid biosynthesis (Test Example 2) [2]: 95.2
- Glycolipid content (Test Example 3) [3]: 100.7
- effect on neurite extension (neurite): effect of accelerating neurite extension
- effect on ganglioside biosynthesis of neurocytes (neurocytes): accelerate ganglioside biosynthesis of neurocytes
- effect on synapse formation (synapse formation): effect of accelerating synapse formation
- effect on MAPkinase [4]: activates MAPkinase for a long period of time
- effect on activity of enzyme for GQ1b synthesis [5]: increases the activity of an enzyme for GQ1b synthesis
